Measured values taken from patent publication US11180462B2, “Microbiocidal oxadiazole derivatives” (SYNGENTA PARTICIPATIONS AG, priority 2015, dated 2021).

Tests used:
[1] = test system: Puccinia recondita f. Sp. Tritici; assay: Fungicidal activity against Puccinia recondita f. sp. tritici / wheat / leaf disc preventative (brown rust); assay type: in vivo; conditions: foliar, 200 ppm in the applied formulation, wheat leaf segments, preventative, compared to untreated control leaf disks, read-out: disease control
Summary of the method: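 Compound application precedes infection: segments of wheat cv. Kanzler, sprayed at 200 ppm, are inoculated with a spore suspension after 1 day. Incubation is at 19° C. with 75% relative humidity and 12 h light/12 h darkness, and control versus untreated leaves is rated 7 to 9 days post-application.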

[2] = test system: Puccinia recondita f. Sp. Tritici; assay: Fungicidal activity against Puccinia recondita f. sp. tritici / wheat / leaf disc curative (brown rust); assay type: in vivo; conditions: foliar, 24 h, 200 ppm in the applied formulation, wheat leaf segments, curative (applied 1 day after inoculation), compared to untreated control leaf disks, read-out: disease control
Summary of the method: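 % disease control vs untreated, scored 6–8 d post-application. Wheat cv. Kanzler segments, spore-inoculated, dark 19° C/75% RH; formulated cpd applied 1 d post-inoc; then 19° C, 75% RH, 12 h L/12 h D.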

[3] = test system: Phakopsora Pachyrhizi; assay: Fungicidal activity against Phakopsora pachyrhizi / soybean / leaf disc preventative (Asian soybean rust); assay type: in vivo; conditions: foliar, 200 ppm in the applied formulation, soybean leaf disks, compared to untreated control leaf disks, read-out: disease control
Summary of the method: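 Preventative soybean leaf-disc test: discs on water agar sprayed with diluted formulated compound, inoculated one day later with spores on the lower surface. Held 24–36 h dark at 20°C, 75% rh, then 12 h light/day; percent disease control versus untreated discs scored 12–14 days after application.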

[4] = test system: Glomerella lagenarium (Colletotrichum lagenarium); assay: Fungicidal activity against Glomerella lagenarium (Colletotrichum lagenarium) liquid culture / cucumber / preventative (anthracnose); assay type: cell-based; conditions: Colletotrichum orbiculare; 20 ppm in the applied formulation; liquid culture (PDB), growth inhibition measured photometrically after 3 to 4 days; compared to untreated control; read-out: disease control
Summary of the method: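 Photometric read-out of fungal growth after 2–7 days, expressed as percent antifungal activity versus untreated check. Cryo-stored conidia in PDB; compound at 20 ppm; dark, 24 °C, 96% RH.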

COC(C)C(=O)N(Cc1ccc(-c2noc(C(F)(F)F)n2)c(F)c1)OC (stereo not shown) [Compound 1.783, N-[[3-fluoro-4-[5-(trifluoromethyl)-1,2,4-oxadiazol-3-yl]phenyl]methyl]-N,2-dimethoxy-propanamide]
≥ 80%: pest or weed control at 200 ppm [1] | pest or weed control at 200 ppm [2] | pest or weed control at 200 ppm [3] | inhibition of growth at 20 ppm [4]

CON(Cc1ccc(-c2noc(C(F)(F)F)n2)cc1)C(=O)CC1CCCC1 [Compound 1.8, 2-cyclopentyl-N-methoxy-N-[[4-[5-(trifluoromethyl)-1,2,4-oxadiazol-3-yl]phenyl]methyl]-acetamide]
≥ 80%: pest or weed control at 200 ppm [1] | pest or weed control at 200 ppm [2] | pest or weed control at 200 ppm [3] | inhibition of growth at 20 ppm [4]

O=C(CC(F)(F)F)N(Cc1ccc(-c2noc(C(F)(F)F)n2)cc1)C1CC1 [Compound 1.111, N-cyclopropyl-3,3,3-trifluoro-N-[[4-[5-(trifluoromethyl)-1,2,4-oxadiazol-3-yl]phenyl]methyl]-propanamide]
≥ 80%: pest or weed control at 200 ppm [1] | pest or weed control at 200 ppm [2] | pest or weed control at 200 ppm [3] | inhibition of growth at 20 ppm [4]

C#CCN(Cc1ccc(-c2noc(C(F)(F)F)n2)cc1)C(=O)C(=C)C [Compound 1.187, 2-methyl-N-prop-2-ynyl-N-[[4-[5-(trifluoromethyl)-1,2,4-oxadiazol-3-yl]phenyl]methyl]-prop-2-enamide]
≥ 80%: pest or weed control at 200 ppm [1] | pest or weed control at 200 ppm [2] | pest or weed control at 200 ppm [3] | inhibition of growth at 20 ppm [4]

O=C(C1CCCO1)N(CCO)Cc1ccc(-c2noc(C(F)(F)F)n2)cc1 (stereo not shown) [Compound 1.726, N-(2-hydroxyethyl)-N-[[4-[5-(trifluoromethyl)-1,2,4-oxadiazol-3-yl]phenyl]methyl]-tetrahydrofuran-2-carboxamido]
≥ 80%: pest or weed control at 200 ppm [1] | pest or weed control at 200 ppm [2] | pest or weed control at 200 ppm [3] | inhibition of growth at 20 ppm [4]

CC(=O)CC(C)C(=O)N(Cc1ccc(-c2noc(C(F)(F)F)n2)cc1)C1CC1 (stereo not shown) [Compound 1.95, N-cyclopropyl-2-methyl-4-oxo-N-[[4-[5-(trifluoromethyl)-1,2,4-oxadiazol-3-yl]phenyl]methyl]-pentanamide]
≥ 80%: pest or weed control at 200 ppm [1] | pest or weed control at 200 ppm [2] | pest or weed control at 200 ppm [3] | inhibition of growth at 20 ppm [4]

O=C(N(Cc1ccc(-c2noc(C(F)(F)F)n2)cc1)C1CC1)C1(C(F)(F)F)CC1 [Compound 1.83, N-cyclopropyl-1-(trifluoromethyl)-N-[[4-[5-(trifluoromethyl)-1,2,4-oxadiazol-3-yl]phenyl]methyl]-cyclopropane-carboxamide]
≥ 80%: pest or weed control at 200 ppm [1] | pest or weed control at 200 ppm [2] | pest or weed control at 200 ppm [3] | inhibition of growth at 20 ppm [4]

C#CCN(Cc1ccc(-c2noc(C(F)(F)F)n2)cc1)C(=O)C1CCOC1 (stereo not shown) [Compound 1.171, N-prop-2-ynyl-N-[[4-[5-(trifluoromethyl)-1,2,4-oxadiazol-3-yl]phenyl]methyl]-tetrahydrofuran-3-carboxamide]
≥ 80%: pest or weed control at 200 ppm [1] | pest or weed control at 200 ppm [2] | pest or weed control at 200 ppm [3] | inhibition of growth at 20 ppm [4]

CON(Cc1ccc(-c2noc(C(F)(F)F)n2)cc1)C(=O)NCC1(C#N)CC1 [Compound 3.40, 3-[(1-cyanocyclopropyl)-methyl]-1-methoxy-1-[[4-[5-(trifluoromethyl)-1,2,4-oxadiazol-3-yl]phenyl]methyl]urea]
≥ 80%: pest or weed control at 200 ppm [1] | pest or weed control at 200 ppm [2] | pest or weed control at 200 ppm [3] | inhibition of growth at 20 ppm [4]

C=CC(=O)N(Cc1ccc(-c2noc(C(F)(F)F)n2)cc1)C(C)CC (stereo not shown) [Compound 1.387, N-sec-butyl-N-[[4-[5-(trifluoromethyl)-1,2,4-oxadiazol-3-yl]phenyl]methyl]-prop-2-enamide]
≥ 80%: pest or weed control at 200 ppm [1] | pest or weed control at 200 ppm [2] | pest or weed control at 200 ppm [3] | inhibition of growth at 20 ppm [4]

CCC(C)N(Cc1ccc(-c2noc(C(F)(F)F)n2)cc1)C(=O)C1(C)COC1 (stereo not shown) [Compound 1.395, 3-methyl-N-sec-butyl-N-[[4-[5-(trifluoromethyl)-1,2,4-oxadiazol-3-yl]phenyl]methyl]-oxetane-3-carboxamide]
≥ 80%: pest or weed control at 200 ppm [1] | pest or weed control at 200 ppm [2] | pest or weed control at 200 ppm [3] | inhibition of growth at 20 ppm [4]

CCC(=O)N(Cc1ccc(-c2noc(C(F)(F)F)n2)cc1)C1CC1 [Compound 1.119, N-cyclopropyl-N-[[4-[5-(trifluoromethyl)-1,2,4-oxadiazol-3-yl]phenyl]methyl]-propanamide]
≥ 80%: pest or weed control at 200 ppm [1] | pest or weed control at 200 ppm [2] | pest or weed control at 200 ppm [3] | inhibition of growth at 20 ppm [4]

COCCNC(=O)N(Cc1ccc(-c2noc(C(F)(F)F)n2)cc1)OC [Compound 3.2, 1-methoxy-3-(2-methoxyethyl)-1-[[4-[5-(trifluoromethyl)-1,2,4-oxadiazol-3-yl]phenyl]methyl]-urea]
≥ 80%: pest or weed control at 200 ppm [1] | pest or weed control at 200 ppm [2] | pest or weed control at 200 ppm [3] | inhibition of growth at 20 ppm [4]

CON(Cc1ccc(-c2noc(C(F)(F)F)n2)cc1)C(=O)C(C)(C)OC [Compound 1.779, N,2-dimethoxy-2-methyl-N-[[4-[5-(trifluoromethyl)-1,2,4-oxadiazol-3-yl]phenyl]methyl]-propanamide]
≥ 80%: pest or weed control at 200 ppm [1] | pest or weed control at 200 ppm [2] | pest or weed control at 200 ppm [3] | inhibition of growth at 20 ppm [4]

C#CCN(Cc1ccc(-c2noc(C(F)(F)F)n2)cc1)C(=O)C1(C)COC1 [Compound 1.192, 3-methyl-N-prop-2-ynyl-N-[[4-[5-(trifluoromethyl)-1,2,4-oxadiazol-3-yl]phenyl]methyl]-oxetane-3-carboxamide]
≥ 80%: pest or weed control at 200 ppm [1] | pest or weed control at 200 ppm [2] | pest or weed control at 200 ppm [3] | inhibition of growth at 20 ppm [4]

CC1(C(=O)N(Cc2ccc(-c3noc(C(F)(F)F)n3)cc2)CC(F)(F)F)COC1 [Compound 1.698, 3-methyl-N-(2,2,2-trifluoroethyl)-N-[[4-[5-(trifluoromethyl)-1,2,4-oxadiazol-3-yl]phenyl]methyl]-oxetane-3-carboxamide]
≥ 80%: pest or weed control at 200 ppm [1] | pest or weed control at 200 ppm [2] | pest or weed control at 200 ppm [3] | inhibition of growth at 20 ppm [4]

O=C(c1ccccc1)N(Cc1ccc(-c2noc(C(F)(F)F)n2)cc1)C1CC1 [Compound 1.150, N-cyclopropyl-N-[[4-[5-(trifluoromethyl)-1,2,4-oxadiazol-3-yl]phenyl]methyl]-benzamide]
≥ 80%: pest or weed control at 200 ppm [1] | pest or weed control at 200 ppm [2] | pest or weed control at 200 ppm [3] | inhibition of growth at 20 ppm [4]

O=C(C1CCSCC1)N(Cc1ccc(-c2noc(C(F)(F)F)n2)cc1)CC1CC1 [Compound 1.230, N-(cyclopropylmethyl)-N-[[4-[5-(trifluoromethyl)-1,2,4-oxadiazol-3-yl]phenyl]methyl]-tetrahydrothiopyran-4-carboxamide]
≥ 80%: pest or weed control at 200 ppm [1] | pest or weed control at 200 ppm [2] | pest or weed control at 200 ppm [3] | inhibition of growth at 20 ppm [4]

C#CCN(Cc1ccc(-c2noc(C(F)(F)F)n2)cc1)C(=O)CC [Compound 1.185, N-prop-2-ynyl-N-[[4-[5-(trifluoromethyl)-1,2,4-oxadiazol-3-yl]phenyl]methyl]-propanamide]
≥ 80%: pest or weed control at 200 ppm [1] | pest or weed control at 200 ppm [2] | pest or weed control at 200 ppm [3] | inhibition of growth at 20 ppm [4]

CC(=O)NCC(=O)N(C)Cc1ccc(-c2noc(C(F)(F)F)n2)cc1 [Compound 1.521, 2-acetamido-N-methyl-N-[[4-[5-(trifluoromethyl)-1,2,4-oxadiazol-3-yl]phenyl]methyl]-acetamide]
≥ 80%: pest or weed control at 200 ppm [1] | pest or weed control at 200 ppm [2] | pest or weed control at 200 ppm [3] | inhibition of growth at 20 ppm [4]

CCC(COC)C(=O)N(CCO)Cc1ccc(-c2noc(C(F)(F)F)n2)cc1 (stereo not shown) [Compound 1.723, N-(2-hydroxyethyl)-2-(methoxymethyl)-N-[[4-[5-(trifluoromethyl)-1,2,4-oxadiazol-3-yl]phenyl]methyl]-butanamide]
≥ 80%: pest or weed control at 200 ppm [1] | pest or weed control at 200 ppm [2] | pest or weed control at 200 ppm [3] | inhibition of growth at 20 ppm [4]

C#CCN(Cc1ccc(-c2noc(C(F)(F)F)n2)cc1)C(=O)CC=CC [Compound 1.180, N-prop-2-ynyl-N-[[4-[5-(trifluoromethyl)-1,2.4-oxadiazol-3-yl]phenyl]methyl]-pent-3-enamide]
≥ 80%: pest or weed control at 200 ppm [1] | pest or weed control at 200 ppm [2] | pest or weed control at 200 ppm [3] | inhibition of growth at 20 ppm [4]
